Test results published in article PMC8404199, “Structure–Activity Relationships of Triple-Action Platinum(IV) Prodrugs with Albumin-Binding Properties and Immunomodulating Ligands” (Journal of Medicinal Chemistry, 2021).

Legend:
Treg differentiation = Treg differentiation assay in human PBMC/SKOV3 co-culture; assay type: cell-based; settings: 50 μM, 5 days, PBMC from three donors co-cultured with SKOV3
Description: PBMCs were thawed and slowly dropped into warm medium at a rate of 1 drop/5 s. PBMCs were then centrifuged (10 min, 400g) and washed with warm AIM V medium (12055091, Thermo Fisher Scientific, Massachusetts, USA). PBMCs were co-cultured with SKOV3 at a ratio of 2:1 (PBMC/SKOV3) in 12-well CytoOne plates (CC7682-7512, Starlab, Hamburg, Germany). In the presence of IL-2 (SRP3085, Merck, Darmstadt, Germany) at a concentration of 80 ng per 10^6, PBMCs were added. To induce Treg differentiation, OKT3 monoclonal CD3 antibody (317302, BioLegend, California, USA) and TGF-β1 CHO (AF-100-21C-10 μg, Eubio, Vienna, Austria) were added at concentrations of 4 μg and 10 ng per 10^6 PBMC, respectively. […] After 3 days, 250 μL of fresh AIM V medium was added, and cells were incubated for another two days. On the day of measurement, supernatant, containing PBMC, was collected.
Cells were washed with PBS and stained using the Aqua Zombie Fixable Viability Kit (423101, BioLegend, California, USA), according to the manufacturer’s instructions. Cells were then stained with fluorescent dye-labeled antibodies, according to the manufacturer’s instructions (Table S7). […] The cleaned up data were analyzed using the gating strategy, as shown in Figure S15 for murine tissue and Figure S16 for human co-culture experiment.

[1] = tested on: phosphorylation of histone H2A.X at position Ser139; experiment: pH2AX signal detection in HCT116 cells; assay type: cell-based, human; settings: HCT116, 50 µM, 24 h, 5-fold excess AA
Description: HCT116 cells were seeded on polytetrafluoroethylene-printed spot slides (E63424-06, Science Services GmbH, Munich, Germany) at a density of 4000 cells/spot. On the next day, cells were exposed to the compounds for 24 h, at 50 μM and fixed in a 4% formaldehyde solution in phosphate-buffered saline (PBS) with a pH adjusted to 7.4 (158127, Merck, Darmstadt, Germany) for 15 min at RT. Spots were washed thrice with PBS each for 5 min, and samples were then incubated in a blocking buffer [PBS, 5% albumin (Carl Roth, Karlsruhe, Germany), 0.3% Triton X-100 (T8787, Merck, Darmstadt, Germany)] for 1 h at RT. […] Next, samples were incubated with rhodamine-labeled wheat germ agglutinin (RL-1022, Vector Laboratories, California, USA) at a concentration for 5 μg/mL for 15 min at RT, and spots were washed twice in PBS, embedded in vectashield mounting medium with DAPI (VECH-1200, Szabo-Scandic, Vienna, Austria), and analyzed using a LSM700 confocal microscope (Zeiss Axio Observer.Z1, inverse, 63× plan-apochromat NA 1.4 Oil DIC objective). […] Images were analyzed using ImageJ software. […] Then, Alexa Fluor 488 signal (integrated density) was measured and normalized to nuclear area.

HCT116 cells = experiment: Cell cycle analysis in HCT116 cells; assay type: cell-based, human; settings: HCT116, 50 µM, 24 h, 5-fold excess AA
Description: The cells were seeded at 600,000 cells/well in six-well plates and allowed to recover for 24 h. On the next day, cells were exposed to the compounds for 24 h, then trypsinized, and collected. Subsequently, cells were washed with PBS and centrifuged (400g, 5 min), and the cell pellet was resuspended in 100 μL of 0.9% NaCl solution. The cell suspension was then added dropwise to 1.8 mL of ice-cold 80% ethanol and incubated for 48 h at −20 °C. The fixated cells were centrifuged (6200g, 2 min), and the cell pellet was diluted in 0.5 mL of PBS with 0.1 mg/mL RNAse A (R5503, Merck, Darmstadt, Germany), which was previously heat-activated (10 min at 96 °C), and samples were incubated for 30 min at 37 °C to remove RNA content. Next, to stain DNA, propidium iodide (81845, Merck, Darmstadt, Germany) at a concentration of 5 μg/mL was added, samples were incubated for 30 min on ice and subsequently measured by flow cytometry.

[2] = UHPLC reduction kinetics with dithiothreitol; assay type: physicochemical; settings: 1 mM complex, 10 mM DTT, 1% DMF, 500 mM phosphate buffer pH 7.4, 20 °C
Description: Figure S 3: Reduction kinetics of reference compounds with AA at 20°C , measured by UHPLC and UV absorption at 220 nm. A: Comparison of OAc/IPAEs with amino -group containing SucCa/IdoEs; B:
Reductive stability of reference compounds with no 1MDT -like ligand. AUC-values were normalized to t = 0. Experimental conditions: 1 mM complex, 10 mM AA in 1% DMF and 500 mM phosphate buffer […]
conditions: 1 mM complex, 10 mM DTT in 1% DMF and 500 mM phosphate buffer (pH 7.4). […]

Row | Structure (SMILES) | Treg differentiation (frequency of Treg in CD4+ T cells) (Treg differentiation) | pH2A.X signals upon reduction by AA [1] | fraction of cells in G2/M phase upon reduction by AA (HCT116 cells) | reduction in the presence of dithiothreitol (in words) [2]
1 | Cn1cc(C[C@@H](NC(=O)[O][Pt]2([O]C(=O)CCCCCN3C(=O)CCC3=O)[O]C(=O)C(=O)[O]2)C(=O)O)c2ccccc21.N[C@@H]1CCCC[C@H]1N [SucEs/IdoCa] | significantly reduced Treg differentiation | – | – | –
2 | Cn1cc(C[C@@H]([NH3+])C(=O)[O][Pt]2([O]C(=O)CCCCCN3C(=O)CCC3=O)[O]C(=O)C(=O)[O]2)c2ccccc21.N[C@@H]1CCCC[C@H]1N.O=C([O-])C(F)(F)F [SucEs/IdoEs, (OC-6-44)-[(R)-2-Ammonio-3-(1-methyl-1H-indol-3-yl)propanoato][(1R,2R)-1,2-cyclohexanediamino][6-(2,5-dioxopyrrolidin-1-yl)hexanoato]oxalatoplatinum(IV) Trifluoroacetate] | – | increased pH2A.X signals | increased fraction of cells in the G2/M phase | –
3 | Cn1cc(CC([NH3+])C(=O)[O][Pt]23([O]C(=O)NCCCCCN4C(=O)CCC4=O)([NH]C4CCCCC4[NH]2)[O]C(=O)C(=O)[O]3)c2ccccc21.O=C([O-])C(F)(F)F [SucCa/IdoEs, (OC-6-34)-[(R)-2-Ammonio-3-(1-methyl-1H-indol-3-yl)propanoato][(1R,2R)-1,2-cyclohexanediamino][5-(2,5-dioxo-2,5-dihydro-1H-pyrrolidin-1-yl)pentylcarbamato]oxalatoplatinum(IV) Trifluoroacetate] | – | increased pH2A.X signals | increased fraction of cells in the G2/M phase | readily reduced
